From ChEMBL document CHEMBL5532637, “Antimicrobial activity of natural and semi-synthetic carbazole alkaloids” (Eur J Med Chem, 2023) come the findings set out here.

For assay [1], the system named is Bacillus subtilis. The experiment in a line: Antibacterial activity against Bacillus subtilis assessed as inhibition of bacterial growth incubated for 24 hrs by macrodilution broth method. It is filed as functional.
Another assay deals with Pseudomonas aeruginosa. Description: Antibacterial activity against Pseudomonas aeruginosa assessed as inhibition of bacterial growth incubated for 24 hrs by macrodilution broth method. It is filed as functional.
Assay [2] deals with Escherichia coli. The experiment in a line: Antibacterial activity against Escherichia coli assessed as inhibition of bacterial growth incubated for 24 hrs by macrodilution broth method. It is filed as functional.
In assay [3] the test system is Staphylococcus aureus. The experiment in a line: Antibacterial activity against Staphylococcus aureus assessed as inhibition of bacterial growth incubated for 24 hrs by macrodilution broth method. It is filed as functional.
The test system of assay [4] is Escherichia coli. Description: Antibacterial activity against Escherichia coli PTCC 1330 assessed as inhibition of bacterial growth by serial dilution assay. It is filed as functional.
The test system of assay [5] is Staphylococcus aureus. Description: Antibacterial activity against Staphylococcus aureus PTCC 1133 assessed as inhibition of bacterial growth by serial dilution assay. It is filed as functional.
The test system of assay [6] is Bacillus subtilis. The experiment in a line: Antibacterial activity against Bacillus subtilis NRRL B-14819 assessed as inhibition of bacterial growth incubated for 24 hrs by disk diffusion method. It is filed as functional. (In general: Agar diffusion results depend on both activity and mobility in agar.)
Assay [7] relates to Candida albicans. The experiment in a line: Antifungal activity against Candida albicans assessed as inhibition of fungal growth incubated for 1 hr by serial plate dilution method. It is filed as functional.
The test system of assay [8] is Staphylococcus aureus. Description: Antibacterial activity against Staphylococcus aureus ATCC 6538 assessed as inhibition of bacterial growth incubated for 24 hrs by disk diffusion method. It is filed as functional.
The subject of assay [9] is Escherichia coli. The experiment in a line: Antibacterial activity against Escherichia coli ATCC 25922 assessed as inhibition of bacterial growth incubated for 24 hrs by disk diffusion method. It is filed as functional.
A further assay deals with Micrococcus luteus. The experiment in a line: Antibacterial activity against Micrococcus luteus ATCC 21881 assessed as inhibition of bacterial growth incubated for 24 hrs by disk diffusion method. It is filed as functional.
In assay [10] the test system is Candida albicans. The experiment in a line: Antimicrobial activity against Candida albicans assessed as inhibition of microbial growth incubated for 18 to 24 hrs by agar broth microplate assay. It is filed as functional. Conditions: time 18-24 hrs, read-out: MIC100.
Assay [11] has as its system Staphylococcus aureus. Description: Antimicrobial activity against methicillin-resistant Staphylococcus aureus assessed as inhibition of microbial growth incubated for 18 to 24 hrs by agar broth microplate assay. It is filed as functional. Conditions: time 18-24 hrs, read-out: MIC100.
Assay [12] has as its system Salmonella typhimurium. Description: Antimicrobial activity against Salmonella typhimurium assessed as inhibition of microbial growth incubated for 18 to 24 hrs by agar broth microplate assay. It is filed as functional, Salmonella enterica subsp. enterica serovar Typhimurium. The note with it: Salmonella enterica; time 18-24 hrs; read-out: MIC100.
Assay [13] concerns Candida albicans. The experiment in a line: Antimicrobial activity against Candida albicans ATCC 10231 assessed as inhibition of microbial growth by microbroth dilution method. It is filed as functional. (Dilution methods test growth across graded concentrations, often in twofold steps.)
Assay [14] has as its system Klebsiella pneumoniae. The experiment in a line: Antimicrobial activity against Klebsiella pneumoniae ATCC 4352 assessed as inhibition of microbial growth by microbroth dilution method. It is filed as functional.
Assay [15] relates to Staphylococcus aureus. The experiment in a line: Antimicrobial activity against Staphylococcus aureus ATCC 6538 assessed as inhibition of microbial growth by microbroth dilution method. It is filed as functional.
The test system of assay [16] is Klebsiella pneumoniae. The experiment in a line: Antibacterial activity against Klebsiella pneumoniae ATCC 13883 assessed as zone of inhibition at 40 ug/ml incubated for 24 hrs by disk diffusion method. It is filed as functional. The note with it: read-out: IZ.
Assay [17] deals with Staphylococcus aureus. The experiment in a line: Antibacterial activity against Staphylococcus aureus ATCC 6538 assessed as zone of inhibition at 40 ug/ml incubated for 24 hrs by disk diffusion method. It is filed as functional. Conditions: read-out: IZ.
In assay [18] the test system is Escherichia coli. The experiment in a line: Antibacterial activity against Escherichia coli ATCC 25922 assessed as zone of inhibition at 40 ug/ml incubated for 24 hrs by disk diffusion method. It is filed as functional. The note with it: read-out: IZ.
Assay [19] concerns Bacillus subtilis. The experiment in a line: Antibacterial activity against Bacillus subtilis ATCC 6633 assessed as zone of inhibition at 40 ug/ml incubated for 24 hrs by disk diffusion method. Conditions: read-out: IZ. It is filed as functional.
The test system of assay [20] is Candida albicans. Description: Antifungal activity against Candida albicans ATCC 10231 assessed as inhibition of fungal growth incubated for 24 hrs by broth dilution method. It is filed as functional.
The subject of assay [21] is Nakaseomyces glabratus. The experiment in a line: Antifungal activity against Candida glabrata DSM 11226 assessed as inhibition of fungal growth incubated for 24 hrs by broth dilution method. It is filed as functional.
In a further assay the test system is Pichia kudriavzevii. The experiment in a line: Antifungal activity against Candida krusei DSM 6128 assessed as inhibition of fungal growth incubated for 24 hrs by broth dilution method. It is filed as functional.
Assay [22] relates to Candida albicans. Description: Antifungal activity against Candida albicans assessed as inhibition of fungal growth incubated for 24 hrs by microplate reader assay. It is filed as functional.
Assay [23] deals with Nakaseomyces glabratus. The experiment in a line: Antifungal activity against Candida glabrata assessed as inhibition of fungal growth incubated for 24 hrs by microplate reader assay. It is filed as functional.
Another assay concerns Candida parapsilosis. The experiment in a line: Antifungal activity against Candida parapsilosis assessed as inhibition of fungal growth incubated for 24 hrs by microplate reader assay. It is filed as functional. Conditions: Lodderomyces parapsilosis.
Another assay concerns Bacillus cereus. Description: Antibacterial activity against Bacillus cereus MTCC 121 assessed as inhibition of bacterial growth by broth micro-dilution assay. It is filed as functional.
Assay [24] relates to Staphylococcus aureus. Description: Antibacterial activity against Staphylococcus aureus MTCC 96 assessed as inhibition of bacterial growth by broth micro-dilution assay. It is filed as functional.
The subject of the next assay is Pseudomonas putida. The experiment in a line: Antibacterial activity against Pseudomonas putida MTCC102 assessed as inhibition of bacterial growth by broth micro-dilution assay. It is filed as functional.
For assay [25], the system named is Escherichia coli. The experiment in a line: Antibacterial activity against Escherichia coli MTCC 1652 assessed as inhibition of bacterial growth by broth micro-dilution assay. It is filed as functional.
The subject of the next assay is Aspergillus niger. The experiment in a line: Antimicrobial activity against Aspergillus niger RCMB02329 assessed as inhibition of microbial growth. It is filed as functional.
The test system of assay [26] is Escherichia coli. Description: Antimicrobial activity against Escherichia coli RCMB000103 assessed as inhibition of microbial growth. It is filed as functional.
Assay [27] concerns Klebsiella pneumoniae. Description: Antimicrobial activity against Klebsiella pneumoniae RCMB000111 assessed as inhibition of microbial growth. It is filed as functional.
Assay [28] relates to Bacillus subtilis. Description: Antimicrobial activity against Bacillus subtilis RCMB 000107 assessed as inhibition of microbial growth. It is filed as functional.
Assay [29] has as its system Staphylococcus aureus. The experiment in a line: Antimicrobial activity against Staphylococcus aureus RCMB000106 assessed as inhibition of microbial growth. It is filed as functional.
For another assay, the system named is Geotrichum candidum. Description: Antimicrobial activity against Geotrichum candidum RCMB050102 assessed as inhibition of microbial growth. It is filed as functional.
Assay [30] concerns Salmonella typhimurium. The experiment in a line: Antimicrobial activity against Salmonella typhimurium RCMB010072 assessed as inhibition of microbial growth. Conditions: Salmonella enterica. It is filed as functional, Salmonella enterica subsp. enterica serovar Typhimurium.

In brackets after ≈: the same amount, converted by molar mass.

On to `COC(=O)C(C)c1ccc2c3cc(Cl)ccc3n(CC(=O)Nc3c(C)cccc3C)c2c1` (stereo not drawn), for which the MIC in the assay with Bacillus subtilis [1], in the assay with Pseudomonas aeruginosa, with Escherichia coli [2] and with Staphylococcus aureus [3] was 0.25 µg/mL (≈ 0.557 µM) in each case.
Take `CCC(O)Cn1cc(Cn2c3ccccc3c3ccccc32)nn1` (stereo not drawn): the MIC50 in the assay with Escherichia coli [4] was found to be 3.12 µg/mL (≈ 9.75 µM); with Staphylococcus aureus [5] it was 1.56 µg/mL (≈ 4.88 µM).
In the case of `CC1=NN(c2ccccc2)C(=O)/C1=N\NNC(=O)Cn1c2ccccc2c2ccccc21`, the MIC in the assay on Bacillus subtilis [6] is 1.2 µg/mL (≈ 2.83 µM); in the assay with Candida albicans [7], 9.6 µg/mL (≈ 22.6 µM); with Staphylococcus aureus [8], 1.1 µg/mL (≈ 2.59 µM); with Escherichia coli [9], 6.4 µg/mL (≈ 15.1 µM); with Micrococcus luteus it was 3.1 µg/mL (≈ 7.3 µM).
Regarding `O=c1[nH]n(-c2ccccc2)c(=O)c2cc3c(cc12)[nH]c1ccc([N+](=O)[O-])cc13`, the MIC with Candida albicans [10] was 32 µg/mL; in the assay with Staphylococcus aureus [11] it was 12 µg/mL; in the assay on Salmonella typhimurium [12], greater than 512 µg/mL.
Consider `Oc1c(/C=N/c2ccc(Cl)cc2Cl)ccc2[nH]c3ccccc3c12`, for which the MIC with Candida albicans [13], with Klebsiella pneumoniae [14] and in the assay on Staphylococcus aureus [15] was 1.4 µg/mL in each case.
Consider `CCn1c2ccccc2c2cc(-c3cc(=O)c4ccccc4o3)ccc21`, for which the zone of inhibition at 40 µg/mL in the assay with Klebsiella pneumoniae [16] turned out to be 27 mm; with Staphylococcus aureus [17] it was 24 mm; with Escherichia coli [18], 29 mm; with Bacillus subtilis [19], 25 mm.
Regarding `CNc1nc(Nc2ccc3[nH]c4ccc(Nc5cnc(N)c(NC)n5)cc4c3c2)cnc1N`, the MIC in the assay with Candida albicans [20] was 250 µg/mL (≈ 566 µM); in the assay with Nakaseomyces glabratus [21], 62.5 µg/mL (≈ 142 µM); in the assay with Pichia kudriavzevii it was 31.2 µg/mL (≈ 70.8 µM).
On to `COc1ccc(CNCCCn2c3ccccc3c3ccccc32)cc1`, for which the MIC80 in the assay with Candida albicans [22] was found to be 16 µg/mL (≈ 46.4 µM); with Nakaseomyces glabratus [23], 4 µg/mL (≈ 11.6 µM); with Candida parapsilosis, 8 µg/mL (≈ 23.2 µM).
Turning to `O=C(Nc1ccc(F)cc1)C(=O)c1ccc2c(c1)c1ccccc1n2Cc1ccc(Cl)cc1`, the MIC in the assay with Bacillus cereus, with Staphylococcus aureus [24], in the assay with Pseudomonas putida and with Escherichia coli [25] was 8 µg/mL (≈ 17.5 µM) throughout.
For the compound `CCn1c2ccccc2c2cc(/C=N/NC3=NC(=O)/C(=N\Nc4ccccc4)S3)ccc21`, the MIC in the assay with Aspergillus niger, in the assay on Escherichia coli [26], in the assay on Klebsiella pneumoniae [27], with Bacillus subtilis [28], in the assay with Staphylococcus aureus [29] and in the assay with Geotrichum candidum was 0.49 µg/mL throughout. In addition, in the assay with Salmonella typhimurium [30], the MIC turned out to be 0.49 µg/mL.

What is called MIC50 is the lowest concentration that inhibits either 50% of growth or 50% of the strains tested, depending on the study. One may read the MIC80 as an inhibitory concentration at the 80% level, which refers to growth in some studies and to a panel of isolates in others.
